According to patent publication US11034932B2, “Composition capable of promoting the growth of denitrifying microorganisms and uses thereof” (CHINA PETROLEUM & CHEMICAL CORPORATION, priority 2016, dated 2021):

Tested on: denitrifying microorganisms
Test: AO wastewater treatment with promoter 1# plus additive (Example 2)
Settings: additive (0.05-0.10 mg/L) added along with promoter 1#; process as example 1
Experimental: Hereunder the present invention will be detailed in examples. In the following examples, the COD concentration is measured with the method specified in GB11914-89 “Water Quality—Determination of Chemical Oxygen Demand—Dichromate Method”; the ammonia nitrogen concentration is measured with the method specified in GB7478-87 “Water Quality—Determination of Ammonium—Distillation and Titration Method”; the concentration of nitrite nitrogen is measured with the method specified in GB7493-87 “Water Quality—Determination of Nitrite Nitrogen—Spectrophotometric Method”; the total nitrogen concentration is measured with the method specified in GB11894-89 “Water Quality—Determination of Total Nitrogen—UV Spectrophotometric Method—Alkaline Potassium Persulfate Digestion Method”.
The wastewater is treated according to the treatment process and operating condition described in example 1, but: an additive is added in a certain amount along with the promoter 1#.
Wherein the formic acid hydroxylamine is obtained by mixing a formic acid and a hydroxylamine at 1:1 molar ratio; the acetic acid hydroxylamine is obtained by mixing an acetic acid and a hydroxylamine at 1:1 molar ratio; both of them are […] after they are prepared.

Row | SMILES | COD in outputted water [mg/L] | NH3—N in outputted water [mg/L] | NO2^—N in outputted water [mg/L] | TN in outputted water [mg/L]
1 | O=S([O-])[O-].[Na+].[Na+] [Na2SO3] | 44.3 | 10.0 | 0.2 | 18.2
2 | NCCCCNCCCN [Spermidine] | 48.4 | 8.9 | 0.2 | 23.9
3 | NCCCNCCCCNCCCN [Spermine] | 47.9 | 9.3 | 0.1 | 21.3
